Assay results as given in ChEMBL document CHEMBL3272085, “Quantitative structure-activity relationships. 2. A mixed approach, based on Hansch and Free-Wilson Analysis” (1976).

Key:
Type in all cases: functional
[1] = tested on: Aspergillus niger; assay: Antimicrobial activity against Aspergillus niger
[2] = tested on: Staphylococcus aureus; assay: Antimicrobial activity against Staphylococcus aureus
[3] = species: Rattus norvegicus; assay: Thyroxine-like activity in rat by antigoiter assay relative to control
[4] = tested on: Wickerhamomyces anomalus; assay: Antimicrobial activity against Hansenula anomala
[5] = tested on: Enterococcus faecalis; assay: Antimicrobial activity against Streptococcus faecalis
[6] = tested on: Bacillus cereus; assay: Antimicrobial activity against Bacillus cereus
[7] = tested on: Bacillus subtilis; assay: Antimicrobial activity against Bacillus subtilis
[8] = tested on: Micrococcus luteus; assay: Antimicrobial activity against Sarcina lutea

## Cc1cc(O)cc(C)c1Cl [CHLOROXYLENOL]
[1]
  log(1/C): 4.22

## CCCCCCCC[N+](C)(C)Cc1ccc([N+](=O)[O-])cc1
[2]
  log(1/C): 2.11

## CC(C)c1cc(Cl)ccc1O
[1]
  log(1/C): 4.3

## CCCCCCCCCCCCCCCC[N+](C)(C)Cc1ccc(Cl)cc1Cl
[2]
  log(1/C): 3.41

## Cc1ccccc1O [ORTHOCRESOL]
[1]
  log(1/C): 2.7

## CCCCCCCCCCCC[N+](C)(C)Cc1ccc(OC)c(OC)c1
[2]
  log(1/C): 3.71

## Cc1cc(C[C@H](N)C(=O)O)cc(I)c1Oc1ccc(O)c(I)c1
[3]
  Activity: 40%
  log(activity): 1.6

## C=C(C)C(=O)Oc1ccccc1Cl
[4]
  log(1/C): 3.28
[2]
  log(1/C): 3.08
[5]
  log(1/C): 3.08
[6]
  log(1/C): 3.08
[7]
  log(1/C): 3.08
[8]
  log(1/C): 3.08

## C=C(C)C(=O)Oc1cc(Cl)c(Cl)cc1Cl
[4]
  log(1/C): 3.54
[2]
  log(1/C): 3.84
[5]
  log(1/C): 3.84
[6]
  log(1/C): 3.84
[7]
  log(1/C): 3.84
[8]
  log(1/C): 3.54

## CCCCCCCCCC[N+](C)(C)Cc1ccc([N+](=O)[O-])cc1
[2]
  log(1/C): 3.11

## CCCCCCCCCCCCCCCCCC[N+](C)(C)Cc1ccccc1
[2]
  log(1/C): 3.34

## Oc1ccc(Cl)cc1 [PARACHLOROPHENOL]
[1]
  log(1/C): 3.35

## CCCCCCCCCCCCCCCCCC[N+](C)(C)Cc1ccc([N+](=O)[O-])cc1
[2]
  log(1/C): 3.46

## C=C(C)C(=O)Oc1ccccc1
[4]
  log(1/C): 2.89
[2]
  log(1/C): 2.89
[5]
  log(1/C): 2.89
[6]
  log(1/C): 2.89
[7]
  log(1/C): 2.89
[8]
  log(1/C): 2.89

## Cc1cc(Oc2c(C)cc(C[C@H](N)C(=O)O)cc2C)ccc1O
[3]
  Activity: 3%
  log(activity): 0.48

## N[C@@H](Cc1cc(I)c(Oc2ccc(O)c(-c3ccccc3)c2)c(I)c1)C(=O)O
[3]
  Activity: 32%
  log(activity): 1.51

## CCCCCCCCCC[N+](C)(C)Cc1ccc(Cl)c(Cl)c1
[2]
  log(1/C): 3.79

## CCCCCCCCCCCCCCCC[N+](C)(C)Cc1ccc(OC)c(OC)c1
[2]
  log(1/C): 3.41

## CCCCCCCCCCCCCCCC[N+](C)(C)Cc1ccccc1Cl
[2]
  log(1/C): 3.74

## CCCCCCCCCC[N+](C)(C)Cc1ccccc1Cl
[2]
  log(1/C): 3.41

## CCCCCCCCCCCCCC[N+](C)(C)Cc1ccc(Cl)c(Cl)c1
[2]
  log(1/C): 4.04

## Oc1ccc(Cl)cc1C1CCCCC1
[1]
  log(1/C): 4.4

## CCCCCCCCCCCCCC[N+](C)(C)Cc1ccc(Cl)cc1Cl
[2]
  log(1/C): 4.28

## CCCCCCCCCCCCCCCC[N+](C)(C)Cc1ccccc1 [CETALKONIUM]
[2]
  log(1/C): 3.92

## Cc1cc(Cl)cc(C)c1O
[1]
  log(1/C): 4.4

## CCCCCCCCCC[N+](C)(C)Cc1ccc(Cl)cc1
[2]
  log(1/C): 3.6

## CCCCCCCCCCCCCCCCCC[N+](C)(C)Cc1ccc2c(c1)OCO2
[2]
  log(1/C): 3.23

## N[C@@H](Cc1cc(I)c(Oc2ccc(O)c(Br)c2)c(I)c1)C(=O)O
[3]
  Activity: 138%
  log(activity): 2.14

## C=C(C)C(=O)Oc1cccc(Cl)c1
[4]
  log(1/C): 3.12
[2]
  log(1/C): 2.91
[5]
  log(1/C): 2.77
[6]
  log(1/C): 2.91
[7]
  log(1/C): 2.91
[8]
  log(1/C): 3.12

## CCCCCCCCCCCC[N+](C)(C)Cc1ccc([N+](=O)[O-])cc1
[2]
  log(1/C): 4.2

## Cc1cc(Oc2c(C)cc(C[C@H](N)C(=O)O)cc2C)cc(C)c1O
[3]
  Activity: 2%
  log(activity): 0.3

## C=C(C)C(=O)Oc1c(Cl)c(Cl)c(Cl)c(Cl)c1Cl
[4]
  log(1/C): 3.35
[2]
  log(1/C): 5.19
[5]
  log(1/C): 4.71
[6]
  log(1/C): 5
[7]
  log(1/C): 5
[8]
  log(1/C): 3.71

## CCCCCCCC[N+](C)(C)Cc1ccc(Cl)c(Cl)c1
[2]
  log(1/C): 2.92

## N[C@@H](Cc1cc(I)c(Oc2ccc(O)cc2)c(I)c1)C(=O)O
[3]
  Activity: 10%
  log(activity): 1

## Oc1ccccc1 [PHENOL]
[1]
  log(1/C): 2.35

## CCCCCCCCCCCCCC[N+](C)(C)Cc1ccc2c(c1)OCO2
[2]
  log(1/C): 4.23

## CCCCCCCCCCCCCC[N+](C)(C)Cc1ccccc1Cl
[2]
  log(1/C): 4.14

## N[C@@H](Cc1cc(I)c(Oc2ccc(O)c(I)c2)c(I)c1)C(=O)O [LIOTHYRONINE]
[3]
  Activity: 545%
  log(activity): 2.74

## N[C@@H](Cc1cc(I)c(Oc2cc(I)c(O)c(I)c2)c(I)c1)C(=O)O [LEVOTHYROXINE]
[3]
  Activity: 100%
  log(activity): 2

## N[C@@H](Cc1cc(I)c(Oc2ccc(O)c(O)c2)c(I)c1)C(=O)O
[3]
  Activity: 1.5%
  log(activity): 0.18

## Cc1cc(O)c(C(C)(C)C)cc1Cl
[1]
  log(1/C): 4.3

## CCCCCCCCCCCCCCCC[N+](C)(C)Cc1ccc2c(c1)OCO2
[2]
  log(1/C): 4.2

## N[C@@H](Cc1cc(I)c(Oc2ccc(O)c(Cl)c2)c(I)c1)C(=O)O
[3]
  Activity: 27%
  log(activity): 1.43

## Cc1cc(C[C@H](N)C(=O)O)cc(C)c1Oc1ccc(O)c(C(C)C)c1
[3]
  Activity: 18%
  log(activity): 1.26

## Oc1ccc(Cl)cc1-c1ccccc1
[1]
  log(1/C): 4.52

## CCCCCCCC[N+](C)(C)Cc1ccc(Cl)cc1Cl
[2]
  log(1/C): 2.63

## CCCCCCCCCCCCCCCCCC[N+](C)(C)Cc1ccc(Cl)cc1Cl
[2]
  log(1/C): 3.3

## CCCCCCCCCCCC[N+](C)(C)Cc1ccc(Cl)cc1Cl
[2]
  log(1/C): 4.25

## Cc1cccc(C)c1O
[1]
  log(1/C): 3.35

## CC(C)(C)c1cc(Oc2c(I)cc(C[C@H](N)C(=O)O)cc2I)ccc1O
[3]
  Activity: 120%
  log(activity): 2.08

## N[C@@H](Cc1cc(Br)c(Oc2ccc(O)c(I)c2)c(Br)c1)C(=O)O
[3]
  Activity: 130%
  log(activity): 2.11

## Cc1cc(C[C@H](N)C(=O)O)cc(C)c1Oc1ccc(O)c(I)c1
[3]
  Activity: 5%
  log(activity): 0.7

## Cc1cc(O)ccc1Cl [CHLOROCRESOL]
[1]
  log(1/C): 3.7

## Oc1ccccc1-c1ccccc1 [2-PHENYLPHENOL]
[1]
  log(1/C): 4.1

## CCCCCCCCCCCCCC[N+](C)(C)Cc1ccc(Cl)cc1
[2]
  log(1/C): 4.34

## CCCCCCCCCCCCCCCCCC[N+](C)(C)Cc1ccccc1Cl
[2]
  log(1/C): 3.43

## CCCCCCCCCCCC[N+](C)(C)Cc1ccccc1 [BENZODODECINIUM]
[2]
  log(1/C): 3.74

## Cc1cc(Cl)ccc1O
[1]
  log(1/C): 3.7

## Cc1ccc(C(C)(C)C)c(O)c1
[1]
  log(1/C): 3.7

## CCCCCCCCCCCCCCCC[N+](C)(C)Cc1ccc(Cl)cc1
[2]
  log(1/C): 3.85

## Cc1cc(C)cc(O)c1
[1]
  log(1/C): 3.26

## CC(C)c1ccccc1O
[1]
  log(1/C): 3.35

## CCCCCCCCCCCCCC[N+](C)(C)Cc1ccc(OC)c(OC)c1
[2]
  log(1/C): 4.11

## CCCCCCCCCCCCCCCC[N+](C)(C)Cc1ccc([N+](=O)[O-])cc1
[2]
  log(1/C): 4

## CCCCCCCCCCCC[N+](C)(C)Cc1ccc(Cl)c(Cl)c1
[2]
  log(1/C): 4.36

## CCCCCCCCCCCCCC[N+](C)(C)Cc1ccc([N+](=O)[O-])cc1
[2]
  log(1/C): 4.23

## CCCCCCCCCCCCCCCCCC[N+](C)(C)Cc1ccc(Cl)cc1
[2]
  log(1/C): 3.17

## CC(C)c1cc(Oc2c(I)cc(C[C@H](N)C(=O)O)cc2I)ccc1O
[3]
  Activity: 868%
  log(activity): 2.94

## CCCCCCCC[N+](C)(C)Cc1ccc(Cl)cc1
[2]
  log(1/C): 2.6

## N[C@@H](Cc1cc(I)c(Oc2cc(F)c(O)c(F)c2)c(I)c1)C(=O)O
[3]
  Activity: 1.8%
  log(activity): 0.26

## CCCCCCCCCCCC[N+](C)(C)Cc1cc([N+](=O)[O-])ccc1O
[2]
  log(1/C): 2.7

## N[C@@H](Cc1cc(Br)c(Oc2ccc(O)c(Br)c2)c(Br)c1)C(=O)O
[3]
  Activity: 44%
  log(activity): 1.64

## N[C@@H](Cc1cc(I)c(Oc2cc(Cl)c(O)c(Cl)c2)c(I)c1)C(=O)O
[3]
  Activity: 0.9%
  log(activity): -0.05

## CCCCCCCC[N+](C)(C)Cc1ccccc1Cl
[2]
  log(1/C): 2.02

## Oc1ccccc1C1CCCCC1
[1]
  log(1/C): 4

## CCCCCCCCCC[N+](C)(C)Cc1ccc2c(c1)OCO2
[2]
  log(1/C): 3.08

## CC(C)c1cc(Oc2c(Br)cc(C[C@H](N)C(=O)O)cc2Br)ccc1O
[3]
  Activity: 450%
  log(activity): 2.65

## CC(C)Cc1cc(Oc2c(I)cc(C[C@H](N)C(=O)O)cc2I)ccc1O
[3]
  Activity: 60%
  log(activity): 1.78

## Cc1cc(Oc2c(I)cc(C[C@H](N)C(=O)O)cc2I)ccc1O
[3]
  Activity: 126%
  log(activity): 2.1

## CCCCCCCCCC[N+](C)(C)Cc1ccc(Cl)cc1Cl
[2]
  log(1/C): 3.65

## CCCCCCCCCCCC[N+](C)(C)Cc1ccc(Cl)cc1
[2]
  log(1/C): 4.04

## N[C@@H](Cc1cc(I)c(Oc2cc(F)c(O)c(I)c2)c(I)c1)C(=O)O
[3]
  Activity: 28%
  log(activity): 1.45

## N[C@@H](Cc1cc(Br)c(Oc2cc(I)c(O)c(I)c2)c(Br)c1)C(=O)O
[3]
  Activity: 12.5%
  log(activity): 1.1

## N[C@@H](Cc1cc(Br)c(Oc2cc(Br)c(O)c(Br)c2)c(Br)c1)C(=O)O
[3]
  Activity: 0.51%
  log(activity): -0.29

## N[C@@H](Cc1cc(Cl)c(Oc2cc(I)c(O)c(I)c2)c(Cl)c1)C(=O)O
[3]
  Activity: 0.1%
  log(activity): -1

## N[C@@H](Cc1cc(I)c(Oc2cc(Br)c(O)c(Br)c2)c(I)c1)C(=O)O
[3]
  Activity: 10%
  log(activity): 1

## CCCCCCCC[N+](C)(C)Cc1ccc2c(c1)OCO2
[2]
  log(1/C): 2.04

## CCCCCCCCCCCCCCCCCC[N+](C)(C)Cc1ccc(Cl)c(Cl)c1
[2]
  log(1/C): 3.11

## CCCCCCCCCCCC[N+](C)(C)Cc1ccc2c(c1)OCO2
[2]
  log(1/C): 4

## CCCCCCCCCC[N+](C)(C)Cc1ccccc1
[2]
  log(1/C): 2.79

## CCCCCCCCCCCCCCCC[N+](C)(C)Cc1ccc(Cl)c(Cl)c1
[2]
  log(1/C): 3.39

## CCCCCCCCCCCCCC[N+](C)(C)Cc1ccccc1 [MIRISTALKONIUM ION]
[2]
  log(1/C): 4.17

## Cc1cccc(O)c1 [METACRESOL]
[1]
  log(1/C): 2.68

## CCCCCCCCCCCC[N+](C)(C)Cc1ccccc1Cl
[2]
  log(1/C): 4.14

## N[C@@H](Cc1cc(I)c(Oc2ccc(O)c(F)c2)c(I)c1)C(=O)O
[3]
  Activity: 8%
  log(activity): 0.9

## CCc1cc(Oc2c(I)cc(C[C@H](N)C(=O)O)cc2I)ccc1O
[3]
  Activity: 506%
  log(activity): 2.7
